{"source": "patent US9480259B2", "about": "“Pyrazolopyrans having herbicidal and pharmaceutical properties” (BASF SE, priority 2012, dated 2016)", "target": "Arabidopsis thaliana SHMT", "assay": "SHMT activity assay (ED50 SHMT), coupled with N5,N10-CH2-THF dehydrogenase, NADH at 340 nm", "type": "biochemical", "outline": "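His-tagged SHMT purified on Ni-NTA. NADH formation followed at 340 nm for 30 min; ED50 from inhibition of initial velocity.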", "key": {"[1]": {"settings": "Arabidopsis thaliana SHMT enzyme assay, values given as upper bounds"}, "[2]": {"settings": "inhibition of initial velocity of Arabidopsis thaliana SHMT"}}, "data": [{"smiles": "Cc1n[nH]c2c1C(c1cc(C#N)cc(N(C)C(=O)c3cccc(C(=O)O)c3)c1)(C(C)C)C(C#N)=C(N)O2", "note": "(stereo not shown) [Compound 2.717]", "values": [{"measurement": "EC50", "setting": "[1]", "result": "< 0.1", "unit": "µM"}]}, {"smiles": "Cc1n[nH]c2c1C(c1cc(C#N)cc(N(C)C(=O)CCc3nnn[nH]3)c1)(C1CCC1)C(C#N)=C(N)O2", "note": "(stereo not shown) [Compound 2.718]", "values": [{"measurement": "EC50", "setting": "[1]", "result": "< 0.1", "unit": "µM"}]}, {"smiles": "CCOC(=O)CS(=O)(=O)N(C)c1cc(C#N)cc(C2(C3CCC3)C(C#N)=C(N)Oc3[nH]nc(C)c32)c1", "note": "(stereo not shown) [Compound 2.719]", "values": [{"measurement": "EC50", "setting": "[1]", "result": "< 0.1", "unit": "µM"}]}, {"smiles": "Cc1n[nH]c2c1C(c1cc(C#N)cc(N(C)C(=O)Cc3nnn[nH]3)c1)(C(C)C)C(C#N)=C(N)O2", "note": "(stereo not shown) [Compound 2.721]", "values": [{"measurement": "EC50", "setting": "[1]", "result": "< 0.1", "unit": "µM"}]}, {"smiles": "Cc1n[nH]c2c1C(c1cc(C#N)cc(N(C)C(=O)CCCc3nnn[nH]3)c1)(C(C)C)C(C#N)=C(N)O2", "note": "(stereo not shown) [Compound 2.722]", "values": [{"measurement": "EC50", "setting": "[1]", "result": "< 0.1", "unit": "µM"}]}, {"smiles": "COC(=O)CCS(=O)(=O)N(C)c1cc(C#N)cc(C2(C3CCC3)C(C#N)=C(N)Oc3[nH]nc(C)c32)c1", "note": "(stereo not shown) [Compound 2.723]", "values": [{"measurement": "EC50", "setting": "[1]", "result": "< 0.1", "unit": "µM"}]}, {"smiles": "Cc1n[nH]c2c1C(c1cc(C#N)cc(N(C)S(=O)(=O)CC#N)c1)(C1CCC1)C(C#N)=C(N)O2", "note": "(stereo not shown) [Compound 2.724]", "values": [{"measurement": "EC50", "setting": "[1]", "result": "< 0.1", "unit": "µM"}]}, {"smiles": "CCOC(=O)CS(=O)(=O)N(C)c1cc(C#N)cc(C2(C(C)C)C(C#N)=C(N)Oc3[nH]nc(C)c32)c1", "note": "(stereo not shown) [Compound 2.725]", "values": [{"measurement": "EC50", "setting": "[1]", "result": "< 0.1", "unit": "µM"}]}, {"smiles": "COC(=O)CCS(=O)(=O)N(C)c1cc(C#N)cc(C2(C(C)C)C(C#N)=C(N)Oc3[nH]nc(C)c32)c1", "note": "(stereo not shown) [Compound 2.726]", "values": [{"measurement": "EC50", "setting": "[1]", "result": "< 0.1", "unit": "µM"}]}, {"smiles": "Cc1n[nH]c2c1C(c1cc(C#N)cc(N(C)C(=O)CCCc3nnn[nH]3)c1)(C1CCC1)C(C#N)=C(N)O2", "note": "(stereo not shown) [Compound 2.727]", "values": [{"measurement": "EC50", "setting": "[1]", "result": "< 0.1", "unit": "µM"}]}, {"smiles": "Cc1n[nH]c2c1C(c1cc(Br)cc(N(C)C(=O)Cc3nnn[nH]3)c1)(C1CCC1)C(C#N)=C(N)O2", "note": "(stereo not shown) [Compound 2.730]", "values": [{"measurement": "EC50", "setting": "[1]", "result": "< 0.01", "unit": "µM"}]}, {"smiles": "Cc1n[nH]c2c1C(c1cc(C#N)cc(N(C)S(=O)(=O)CC(=O)O)c1)(C1CCC1)C(C#N)=C(N)O2", "note": "(stereo not shown) [Compound 2.731]", "values": [{"measurement": "EC50", "setting": "[1]", "result": "< 0.1", "unit": "µM"}]}, {"smiles": "Cc1n[nH]c2c1C(c1cc(C#N)cc(N(C)S(=O)(=O)CC(=O)O)c1)(C(C)C)C(C#N)=C(N)O2", "note": "(stereo not shown) [Compound 2.732]", "values": [{"measurement": "EC50", "setting": "[1]", "result": "< 0.1", "unit": "µM"}]}, {"smiles": "Cc1n[nH]c2c1C(c1cc(C#N)cc(NS(=O)(=O)C(F)(F)F)c1)(C1CCC1)C(C#N)=C(N)O2", "note": "(stereo not shown) [Compound 2.733]", "values": [{"measurement": "EC50", "setting": "[1]", "result": "< 0.1", "unit": "µM"}]}, {"smiles": "Cc1n[nH]c2c1C(c1ccc(CCc3nnn[nH]3)c(C#N)c1)(C(C)C)C(C#N)=C(N)O2", "note": "(stereo not shown) [Compound 2.734]", "values": [{"measurement": "EC50", "setting": "[1]", "result": "< 0.1", "unit": "µM"}]}, {"smiles": "Cc1n[nH]c2c1C(c1cc(Cc3nnn[nH]3)cc(-c3nnn[nH]3)c1)(C(C)C)C(C#N)=C(N)O2", "note": "(stereo not shown) [Compound 2.735]", "values": [{"measurement": "EC50", "setting": "[1]", "result": "< 10", "unit": "µM"}]}, {"smiles": "Cc1n[nH]c2c1C(c1ccc(CCC#N)c(-c3nnn[nH]3)c1)(C(C)C)C(C#N)=C(N)O2", "note": "(stereo not shown) [Compound 2.736]", "values": [{"measurement": "EC50", "setting": "[1]", "result": "< 1", "unit": "µM"}]}, {"smiles": "Cc1n[nH]c2c1C(c1cc(C#N)cc(Cc3nnn[nH]3)c1)(C(C)C)C(C#N)=C(N)O2", "note": "(stereo not shown) [Compound 2.738]", "values": [{"measurement": "EC50", "setting": "[1]", "result": "< 0.1", "unit": "µM"}]}, {"smiles": "CCC1(c2cc(F)c(F)cc2F)C(C#N)=C(N)Oc2[nH]nc(C)c21", "note": "(stereo not shown) [Compound 3.3]", "values": [{"measurement": "EC50", "setting": "[2]", "result": "< 10", "unit": "µM"}]}, {"smiles": "CCC1(c2cc(F)cc(F)c2F)C(C#N)=C(N)Oc2[nH]nc(C)c21", "note": "(stereo not shown) [Compound 3.4]", "values": [{"measurement": "EC50", "setting": "[2]", "result": "< 10", "unit": "µM"}]}, {"smiles": "Cc1n[nH]c2c1C(c1ccc(-c3cccs3)s1)(C1CCC1)C(C#N)=C(N)O2", "note": "(stereo not shown) [Compound 4.1]", "values": [{"measurement": "EC50", "setting": "[2]", "result": "< 0.01", "unit": "µM"}]}, {"smiles": "Cc1n[nH]c2c1C(c1ccc(-c3ccco3)s1)(C1CCC1)C(C#N)=C(N)O2", "note": "(stereo not shown) [Compound 4.3]", "values": [{"measurement": "EC50", "setting": "[2]", "result": "< 0.01", "unit": "µM"}]}, {"smiles": "Cc1n[nH]c2c1C(c1cc(Cl)c3c(c1)OCCO3)(C1CCC1)C(C#N)=C(N)O2", "note": "(stereo not shown) [Compound 4.5]", "values": [{"measurement": "EC50", "setting": "[2]", "result": "< 0.01", "unit": "µM"}]}, {"smiles": "Cc1n[nH]c2c1C(c1ccc(-c3cccc(Cl)c3)s1)(C1CCC1)C(C#N)=C(N)O2", "note": "(stereo not shown) [Compound 4.6]", "values": [{"measurement": "EC50", "setting": "[2]", "result": "< 0.01", "unit": "µM"}]}, {"smiles": "Cc1n[nH]c2c1C(c1cc3cc(Cl)ccc3o1)(C1CCC1)C(C#N)=C(N)O2", "note": "(stereo not shown) [Compound 4.7]", "values": [{"measurement": "EC50", "setting": "[2]", "result": "< 0.01", "unit": "µM"}]}, {"smiles": "Cc1n[nH]c2c1C(c1ccc(-c3ccc(F)cc3)s1)(C1CCC1)C(C#N)=C(N)O2", "note": "(stereo not shown) [Compound 4.8]", "values": [{"measurement": "EC50", "setting": "[2]", "result": "< 0.01", "unit": "µM"}]}, {"smiles": "Cc1n[nH]c2c1C(c1cc3cc(Cl)ccc3s1)(C1CCC1)C(C#N)=C(N)O2", "note": "(stereo not shown) [Compound 4.9]", "values": [{"measurement": "EC50", "setting": "[2]", "result": "< 0.01", "unit": "µM"}]}, {"smiles": "Cc1n[nH]c2c1C(c1ccc(-c3ccccc3)s1)(C1CCC1)C(C#N)=C(N)O2", "note": "(stereo not shown) [Compound 4.10]", "values": [{"measurement": "EC50", "setting": "[2]", "result": "< 0.01", "unit": "µM"}]}, {"smiles": "Cc1n[nH]c2c1C(c1cncc(Cl)c1)(C1CCC1)C(C#N)=C(N)O2", "note": "(stereo not shown) [Compound 4.11]", "values": [{"measurement": "EC50", "setting": "[2]", "result": "< 0.01", "unit": "µM"}]}, {"smiles": "Cc1n[nH]c2c1C(c1cc(Cl)c3c(c1)CCO3)(C1CCC1)C(C#N)=C(N)O2", "note": "(stereo not shown) [Compound 4.12]", "values": [{"measurement": "EC50", "setting": "[2]", "result": "< 0.01", "unit": "µM"}]}, {"smiles": "Cc1ccc(-c2ccc(C3(C4CCC4)C(C#N)=C(N)Oc4[nH]nc(C)c43)s2)cc1", "note": "(stereo not shown) [Compound 4.13]", "values": [{"measurement": "EC50", "setting": "[2]", "result": "< 0.01", "unit": "µM"}]}, {"smiles": "Cc1n[nH]c2c1C(c1ccc(-c3cccc(F)c3)s1)(C1CCC1)C(C#N)=C(N)O2", "note": "(stereo not shown) [Compound 4.14]", "values": [{"measurement": "EC50", "setting": "[2]", "result": "< 0.01", "unit": "µM"}]}, {"smiles": "Cc1n[nH]c2c1C(c1cc(Cl)c3c(c1)OCCO3)(C(C)C)C(C#N)=C(N)O2", "note": "(stereo not shown) [Compound 4.15]", "values": [{"measurement": "EC50", "setting": "[2]", "result": "< 0.01", "unit": "µM"}]}, {"smiles": "Cc1n[nH]c2c1C(c1cc(-c3cccs3)cs1)(C1CCC1)C(C#N)=C(N)O2", "note": "(stereo not shown) [Compound 4.16]", "values": [{"measurement": "EC50", "setting": "[2]", "result": "< 0.01", "unit": "µM"}]}, {"smiles": "Cc1n[nH]c2c1C(c1ccc(-c3ccccc3F)s1)(C1CCC1)C(C#N)=C(N)O2", "note": "(stereo not shown) [Compound 4.17]", "values": [{"measurement": "EC50", "setting": "[2]", "result": "< 0.01", "unit": "µM"}]}, {"smiles": "Cc1n[nH]c2c1C(c1ccc3c(c1)C(F)(F)CCO3)(C1CCC1)C(C#N)=C(N)O2", "note": "(stereo not shown) [Compound 4.18]", "values": [{"measurement": "EC50", "setting": "[2]", "result": "< 0.01", "unit": "µM"}]}, {"smiles": "Cc1ccc2cc(C3(C4CCC4)C(C#N)=C(N)Oc4[nH]nc(C)c43)cc(C(F)(F)F)c2n1", "note": "(stereo not shown) [Compound 4.19]", "values": [{"measurement": "EC50", "setting": "[2]", "result": "< 0.01", "unit": "µM"}]}]}
